According to US20140378378A1, “ERYTHROPOIETIN-DERIVED PEPTIDE AND USE THEREFOR” (priority 2011, published 2014):

Legend:
retinal neurocytes = experiment: Cell survival of retinal neurocytes, MTT assay, 72 hours, hypoxic conditions; type: cell-based, rat; details: for cell survival rate: normal culture = 100%
Experimental: Eyes of a […] rat were removed and retina of the eyes were separated and then put into solution 1. Retinal tissues were treated in trypsin at a temperature of 37° C. for 10 minutes and then centrifuged at 180 g for 5 minutes.
After centrifugation, a supernatant solution was discarded and all collected tissues were put into a stop solution. Aggregated tissues were disentangled by using a pipette and then centrifuged again at 180 g for 5 minutes. Separated cells were mixed with 10% FBS-MEM at a density of 1×10^6 cells/mL. 100 ul of cells were inoculated in each well of a 96-well plate and then cultured for 24 hours.
Thereafter, the culture medium was removed from the well plate for stabilization, a new culture medium and 5 uM Ara-c (cytosine arabinoside, sigma, C1768) were added thereto, cultured for 48 hours, the culture medium was removed again after 48 hours, a new culture medium was added thereto, and then cultured in an incubator having conditions of […], 5% CO2, and a temperature of 37° C. for the next experiment. Thereafter, the culture medium was removed for stabilization after another 48 hours, then a new culture medium was added thereto, and then cultured in an incubator under conditions of […], 5% CO2, and a temperature of 37° C. for the next experiment.
Cells were seeded in a 96-well plate at a density of 2×10^4 cells/well and 200 ul for each well. In this regard, cell confluence was set to be about 70% to about 80%. After 24 hours, when the cells have stabilized, a 26 gauge or 28 gauge needle was used to remove a preexisting medium from the wells. 200 ul of PBS free of serum and nutrients was added to each well, the wells were divided into EPO treatment groups and MKX-2 treatment groups, which were further divided into experimental groups according to concentrations of 0 nM, 0.1 nM, 1 nM, 10 nM, 100 nM, and 1000 nM and then treated with a drug for 72 hours under hypoxic conditions, and surviving […] neurocytes were quantitatively analyzed in an […]. The EPO used was an Eporon injection (Dong-A Pharmaceuticals, Korea). All experimental groups for each concentration included 7 wells. After a certain treatment time, 3-[4,5-dimethylthiazol-2-yl]-2,5-diphenyl tetrazolium bromide (MTT, Sigma, M2128) that was dissolved in a phosphate buffered saline (PBS) and then sterilization filtered by using a membrane filter having a thickness of 0.22 um was added to each well in an amount of 100 ul at a concentration of 1 mg/ml. In this regard, an MIT reagent was used after wrapping the MTT reagent with a foil sheet to block it from light. […]
Thereafter, an ELISA reader was used to measure an O.D. value at 570 nm for quantitatively analysis. […]

neurocytes = experiment: Cell survival of neurocytes after serum removal, with or without 0.1% 2-mercaptoethanol, 72 hours; type: cell-based, rat
Description: A rat pregnant for […] was cervically dislocated to sacrifice the experimental animal and the abdomen of the experimental animal was excised in an U-shape to expose the uterus in which a fetus was located. Thereafter, the fetus was taken out from the uterus and then inserted into a fetus washing medium and then washed three times. Only the head of the fetus was cut and then inserted into the fetus washing medium to wash the head three times and then the cranium of the fetus was broken to separate the brain therefrom. A knife was used to cut the cortex of the brain and tissues of the cortex were thoroughly chopped, which were then collected in the already prepared fetus washing medium. After centrifuging at 400 g for 4 minutes, a supernatant was removed therefrom and then 0.025% of trypsin and 10 ml of DNase1 were added to the pellets to break the pellets. The mixture was stored in an incubator for 15 minutes.
Thereafter, 15 ml of a cell culture medium was added thereto again, centrifuged at 400 g for 4 minutes, a supernatant was removed therefrom to obtain pellets, which were washed twice with 6 ml of a washing medium (including DNase 1), and then centrifuged again at 400 g for 4 minutes. After the centrifugation, the supernatant solution was removed again to obtain pellets, 10 ml of the culture medium was added to the pellets and a mixture obtained therefrom was mixed with 10 ul of trypan blue to count the cells by using a hemocytometer. In a 24-well plate, 500 ul of the cells were seeded in each well and then cultured for 48 hours. Thereafter, the culture medium was removed from the well plate for stabilization, a new cell culture medium and 5 uM Ara-c (cytosine arabinoside, sigma, C1768) were added thereto, cultured for […], the culture medium was removed again after 24 hours, a new culture medium was added thereto, and then cultured in an incubator having conditions of […], 5% CO2, and a temperature of 37° C. for the next experiment.
In a 96-well plate, cells were inoculated at a density of 2×10^4 cells/well and in an amount of 200 ul for each well. In this regard, cell confluence was set to be about 70% to about 80%. After 24 hours, when the cells have stabilized, a 26 or 28 gauge needle was used to remove a pre-existing medium from the wells. […]

## EPO: erythropoietin; the EPO used was an Eporon injection (Dong-A Pharmaceuticals, Korea)
Retinal neurocytes; 0.1 nM and 1 nM
  increase of cell survival rate compared to 0 nM: without any statistical significance
Retinal neurocytes; 10 nM
  cell survival rate: 128.03%
Retinal neurocytes; 100 nM
  cell survival rate: 127.6%
Retinal neurocytes; 1000 nM
  cell survival rate: 124.77%
neurocytes; EPO 1 IU/ml, serum removed, no 2-mercaptoethanol, 72 hours, normal culture = 100%
  cell survival rate: 41.64%
neurocytes; EPO 1 U/ml, after exposure to 0.1% 2-mercaptoethanol for 18 hours
  cell survival rate: 6.98%
neurocytes; EPO 10 IU/ml, serum removed, no 2-mercaptoethanol, 72 hours, normal culture = 100%
  cell survival rate: 48.57%
neurocytes; EPO 10 U/ml, after exposure to 0.1% 2-mercaptoethanol for 18 hours
  cell survival rate: 11.70%
